# What was measured:
# [1] = Ability to promote neurite outgrowth against freshly isolated sensory neuronal cultures; type: functional; conditions: Gallus gallus; read-out: ED50 (the source's name)
# FK506 binding protein 12 = FK506 binding protein 12 (Gallus gallus, UniProt Q8QGU2); assay: Inhibition of binding to FKBP12 receptor
# [2] = Tested for its ability to inhibit calcineurin phosphatase activity in standard in vitro assay; NI means no inhibition at >10 uM; type: functional
# T-cell = assay: Tested for its ability to block T-cell proliferation in standard in vitro assay; NI means no inhibition at >10 uM; type: functional, cell-based
# Chain of FK506 binding protein 12 (Q8QGU2 whole entry): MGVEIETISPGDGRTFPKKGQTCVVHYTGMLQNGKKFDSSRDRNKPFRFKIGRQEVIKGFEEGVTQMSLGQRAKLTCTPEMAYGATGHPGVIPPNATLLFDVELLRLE
SMILES,EC50 [1] [nM],Ki (FK506 binding protein 12) [nM],Activity [2],Activity (T-cell)
CCC(C)(C)C(=O)C(=O)N1CCCCC1C(=O)OC(CCCc1ccccc1)CCCc1ccccc1 (configuration not stated),5,,,
CCOC(=O)C1CCCCN1C(=O)C(=O)OC (configuration not stated),> 10000,> 10000,,
CCC(C)(C)C(=O)C(=O)N1CCCCC1C(=O)OCCC(c1ccccc1)c1ccccc1 (configuration not stated),0.029,8.3,,
COc1cc(C(=O)C(=O)N2CCCCC2C(=O)OC(CCCc2ccccc2)CCCc2ccccc2)cc(OC)c1OC (configuration not stated),0.61,,,
CCOC(=O)C1CCCCN1C(=O)C(=O)C(C)(C)CC (configuration not stated),5000,1300,,
COc1ccc(CCCCOC(=O)C2CCCCN2C(=O)C(=O)C(C)(C)C)cc1 (configuration not stated),0.002,24,,
CCC(C)(C)C(=O)C(=O)N1CCCCC1C(=O)OCCCc1ccccc1 (configuration not stated),300,250,No inhibition,No inhibition
O=C(C(=O)N1CCCCC1C(=O)OC(CCCc1ccccc1)CCCc1ccccc1)c1ccccc1 (configuration not stated),0.15,3,,
CCC(C)(C)C(=O)C(=O)N1CCCCC1C(=O)OCCCc1cc(OC)c(OC)c(OC)c1 (configuration not stated),80,25,No inhibition,No inhibition
CCC(C)(C)C(=O)C(=O)N1CCCCC1C(=O)OC(CCc1ccccc1)CCc1ccccc1 (configuration not stated),0.016,,,
CC(C)(C)C(=O)C(=O)N1CCCCC1C(=O)OCCCc1ccccc1 (configuration not stated),0.085,,,
CCC(C)(C)C(=O)C(=O)N1CCCCC1C(=O)OC(CCCc1ccccc1)CCc1ccc(OC)cc1 (configuration not stated),0.17,15,,
CCC(C)(C)C(=O)C(=O)N1CCCCC1C(=O)OCCCCc1ccc(OC)cc1 (configuration not stated),43,60,,
CC(C)(C)C(=O)C(=O)N1CCCCC1C(=O)OC(CCCc1ccccc1)CCCc1ccccc1 (configuration not stated),0.085,,,

# Source: ChEMBL document CHEMBL1130475 (Bioorg Med Chem Lett, 1997)
